Source: DBAASP
Values after ≈ are worked out from the molar mass of the structure shown.

What was measured:
Test in all cases: ≥ marks a high value that may be exact or a test limit, other limits are often not marked, values filed in µg/mL are converted to µM
[1] = tested on: Listeria monocytogenes ATCC 19115
[2] = tested on: Bacillus subtilis CMCC 63501
[3] = tested on: Staphylococcus aureus CMCC 26003
[4] = tested on: Escherichia coli DH5alpha
Pseudomonas fluorescens = tested on: Pseudomonas fluorescens
Pseudomonas putida = tested on: Pseudomonas putida
[5] = tested on: Salmonella enterica AB2010185
[6] = tested on: Staphylococcus aureus AB94004
[7] = tested on: Bacillus magaterium AB90008
[8] = tested on: Enterobacter cloacae AB2010162
[9] = tested on: Micrococcus luteus AB2010179
[10] = tested on: Staphylococcus aureus ATCC 27660
[11] = tested on: Staphylococcus epidermidis ATCC 14990
Escherichia coli D31 = tested on: Escherichia coli D31
[12] = tested on: Salmonella enterica subsp. enterica serovar Typhimurium ATCC 700931
[13] = tested on: Pseudomonas aeruginosa ATCC 10145
Fusarium solani = tested on: Fusarium solani
[14] = tested on: Pseudomonas syringae pv. tabaci
Fusarium oxysporum = tested on: Fusarium oxysporum
[15] = tested on: Pectobacterium carotovorum
Trichoderma asperellum = tested on: Trichoderma asperellum
[16] = tested on: Fusarium oxysporum f.sp. vasinfectum
[17] = tested on: Staphylococcus aureus ATCC 25923
[18] = tested on: Candida albicans ATCC 90028
[19] = tested on: Escherichia coli ATCC 25922
Ramulariopsis gossypii = tested on: Ramulariopsis gossypii
[20] = tested on: Bacillus subtilis ATCC 23857
[21] = tested on: Cryptococcus neoformans ATCC 28957
[22] = tested on: Xanthomonas vesicatoria 2133-2
[23] = tested on: Penicillium expansum EPS 26
[24] = tested on: Pseudomonas syringae EPS 94
[25] = tested on: Rhizopus stolonifer CECT 2344
[26] = tested on: Erwinia amylovora PMV 6076
[27] = tested on: Aspergillus niger CECT 2694
[28] = tested on: Fusarium oxysporum f. sp. lycopersici ATCC 201829

SMILES: CC[C@H](C)[C@H](NC(=O)[C@H](CCCN=C(N)N)NC(=O)[C@H](CCCN=C(N)N)NC(=O)[C@H](Cc1c[nH]c2ccccc12)NC(=O)[C@@H](N)Cc1ccccc1)C(=O)N[C@@H](CCCN=C(N)N)C(=O)N[C@H](C(=O)N[C@H](C(=O)N1CCC[C@H]1C(=O)N[C@@H](Cc1c[nH]c2ccccc12)C(=O)N[C@H](C(=O)N[C@@H](CC(N)=O)C(=O)N1CCC[C@H]1C(=O)N1CCC[C@H]1C(=O)N[C@@H](Cc1ccccc1)C(=O)N[C@@H](CC(C)C)C(=O)N[C@@H](CCC(N)=O)C(=O)N[C@@H](CCC(N)=O)C(=O)N[C@H](C(N)=O)[C@@H](C)O)C(C)C)[C@@H](C)O)C(C)C [FWRRIRVTPWVNPPFLQQT]
- MIC [1]: 26.2 µM (≈ 64 µg/mL)
- MIC [2]: ≥ 105 µM
- MIC [3]: 26.2 µM (≈ 64 µg/mL)

SMILES: CC[C@H](C)[C@H](N)C(=O)N[C@@H](CC(C)C)C(=O)NCC(=O)N[C@@H](CCCCN)C(=O)N[C@H](C(=O)N[C@@H](Cc1c[nH]c2ccccc12)C(=O)N[C@@H](CCCCN)C(=O)NCC(=O)N[C@H](C(=O)N[C@@H](CCCCN)C(=O)N[C@@H](CC(N)=O)C(=O)N[C@H](C(=O)N[C@@H](CC(C)C)C(N)=O)[C@@H](C)CC)[C@@H](C)CC)[C@@H](C)CC [ILGKIWKGIKNIL]
- MIC [4]: ≥ 82 µM
- MIC (Pseudomonas fluorescens): ≥ 32 µM
- MIC (Pseudomonas putida): 16 µM (≈ 23.9 µg/mL)
- MIC [5]: ≥ 35 µM
- MIC [6]: 12 µM (≈ 17.9 µg/mL)
- MIC [7]: ≥ 50 µM
- MIC [8]: ≥ 82 µM
- MIC [9]: 2 µM (≈ 2.99 µg/mL)

SMILES: CC(C)C[C@H](NC(=O)[C@H](C)N)C(=O)N[C@@H](Cc1c[nH]c2ccccc12)C(=O)N[C@@H](CCCCN)C(=O)N[C@@H](CCCCN)C(=O)N[C@@H](CC(C)C)C(=O)N[C@@H](CC(C)C)C(=O)N[C@@H](CCCCN)C(=O)N[C@@H](CCCCN)C(=O)N[C@@H](CC(C)C)C(=O)N[C@@H](CC(C)C)C(=O)N[C@@H](CCCCN)C(=O)N[C@@H](CO)C(=O)N[C@@H](C)C(=O)N[C@@H](CCCCN)C(=O)N[C@@H](CCCCN)C(=O)N[C@@H](CC(C)C)C(=O)NCC(=O)O [ALWKKLLKKLLKSAKKLG]
- MIC [10]: 1.88 µM (≈ 3.89 µg/mL)
- MIC [11]: 0.94 µM (≈ 1.94 µg/mL)
- MIC (Escherichia coli D31): 0.94 µM (≈ 1.94 µg/mL)
- MIC [12]: 1.88 µM (≈ 3.89 µg/mL)
- MIC [13]: 1.88 µM (≈ 3.89 µg/mL)

SMILES: CC[C@H](C)[C@H](NC(=O)[C@H](CCCN=C(N)N)NC(=O)[C@H](CCCN=C(N)N)NC(=O)[C@H](CC(C)C)NC(=O)[C@@H](N)Cc1ccccc1)C(=O)N[C@@H](CCCN=C(N)N)C(=O)N[C@H](C(=O)N[C@H](C(=O)N1CCC[C@H]1C(=O)N[C@@H](Cc1c[nH]c2ccccc12)C(=O)N[C@H](C(=O)N[C@@H](CC(N)=O)C(=O)N1CCC[C@H]1C(=O)N1CCC[C@H]1C(=O)N[C@@H](Cc1ccccc1)C(=O)N[C@@H](CC(C)C)C(=O)N[C@@H](CCC(N)=O)C(=O)N[C@@H](CCC(N)=O)C(=O)N[C@H](C(N)=O)[C@@H](C)O)C(C)C)[C@@H](C)O)C(C)C [FLRRIRVTPWVNPPFLQQT]
- MIC [1]: ≥ 54 µM
- MIC [3]: ≥ 108 µM

SMILES: CC[C@H](C)[C@H](NC(=O)[C@H](CCCCN)NC(=O)[C@@H](NC(=O)[C@@H](NC(=O)[C@H](CC(N)=O)NC(=O)[C@H](Cc1ccc(O)cc1)NC(=O)[C@H](Cc1ccccc1)NC(=O)[C@@H](N)Cc1ccccc1)C(C)C)[C@@H](C)CC)C(=O)N[C@@H](Cc1ccc(O)cc1)C(=O)NCC(=O)N[C@@H](CC(N)=O)C(=O)N[C@@H](CCSC)C(=O)N[C@@H](C)C(=O)NCC(=O)N[C@@H](CCCN=C(N)N)C(=O)N[C@H](C(=O)N[C@@H](CO)C(=O)N[C@@H](CCCCN)C(N)=O)[C@@H](C)CC [FFYNVIKIYGNMAGRISK]
- MIC (Fusarium solani): ≥ 128 µM
- MIC [14]: ≥ 128 µM
- MIC (Fusarium oxysporum): ≥ 128 µM
- MIC [15]: 16 µM (≈ 33.9 µg/mL)
- MIC (Trichoderma asperellum): ≥ 256 µM
- MIC [16]: ≥ 128 µM
- MIC [17]: 128 µM (≈ 271 µg/mL)
- MIC [18]: ≥ 128 µM
- MIC [19]: 128 µM (≈ 271 µg/mL)
- MIC (Ramulariopsis gossypii): ≥ 64 µM
- MIC [20]: ≥ 64 µM
- MIC [21]: ≥ 32 µM

SMILES: CC(C)[C@H](NC(=O)[C@H](C)N)C(=O)N[C@@H](Cc1c[nH]c2ccccc12)C(=O)N[C@@H](CCCCN)C(=O)N[C@@H](CCCCN)C(=O)N[C@H](C(=O)N[C@H](C(=O)N[C@@H](CCCCN)C(=O)N[C@@H](CCCCN)C(=O)N[C@H](C(=O)N[C@H](C(=O)N[C@@H](CCCCN)C(=O)N[C@@H](CO)C(=O)N[C@@H](C)C(=O)N[C@@H](CCCCN)C(=O)N[C@@H](CCCCN)C(=O)N[C@H](C(=O)NCC(=O)O)C(C)C)C(C)C)C(C)C)C(C)C)C(C)C [AVWKKVVKKVVKSAKKVG]
- MIC [10]: 7.5 µM (≈ 14.9 µg/mL)
- MIC [11]: 7.5 µM (≈ 14.9 µg/mL)
- MIC (Escherichia coli D31): 3.75 µM (≈ 7.43 µg/mL)
- MIC [12]: 7.5 µM (≈ 14.9 µg/mL)
- MIC [13]: 7.5 µM (≈ 14.9 µg/mL)

SMILES: CC[C@H](C)[C@H](NC(=O)[C@H](CCCCN)NC(=O)[C@H](CCCCN)NC(=O)[C@H](Cc1ccccc1)NC(=O)[C@H](CC(C)C)NC(=O)[C@H](CCCCN)NC(=O)[C@@H](N)Cc1c[nH]c2ccccc12)C(=O)N[C@@H](CC(C)C)C(=O)N[C@@H](CCCCN)C(=O)N[C@@H](Cc1ccccc1)C(=O)N[C@@H](CC(C)C)C(N)=O [WKLFKKILKFL]
- MIC [22]: 2 µM (≈ 2.93 µg/mL)
- MIC [23]: 22.4 µM (≈ 32.7 µg/mL)
- MIC [24]: 5.92 µM (≈ 8.65 µg/mL)
- MIC [25]: ≥ 35.4 µM
- MIC [26]: 5.92 µM (≈ 8.65 µg/mL)
- MIC [27]: 22.4 µM (≈ 32.7 µg/mL)
- MIC [28]: 1.73 µM (≈ 2.53 µg/mL)
